Drawing on ChEMBL document CHEMBL4476885, “Multisubstituted 4h-thiazolo[4,5-e][1,4]diazepine-5,8-dione derivative and use thereof” (2017), this text covers Activity for eight molecules.

The test system of this experiment is Mus musculus. Description: Antiinflammatory activity in iv dosed ICR mouse model of CLP-induced sepsis assessed as increase in survival rate. Type of experiment: functional.
Take `O=C1C2CCCN2C(=O)c2sc(N3CCCCC3)nc2N1Cc1ccccc1` (stereo not drawn): the Activity is 40%. In the case of `COc1ccc(CNc2nc3c(s2)C(=O)N2CCCC2C(=O)N3)cc1` (stereo not drawn) it was 40%; in that of `COc1ccc(CNc2nc3c(s2)C(=O)N(C)CC(=O)N3Cc2ccccc2)cc1`, 40%; in that of `CN1C(=O)C2CCCCN2C(=O)c2sc(Sc3ccccc3)nc21` (stereo not drawn), 60%. As to `O=C1Nc2nc(N3CCOCC3)sc2C(=O)N2CCCC12` (stereo not drawn), the Activity turned out to be 40%. In the case of `CCN1C(=O)C2CCCN2C(=O)c2sc(NCc3ccc(OC)cc3)nc21` (stereo not drawn) it was 40%; in that of `CCCCNc1nc2c(s1)C(=O)N(Cc1ccccc1)CC(=O)N2`, 40%. On to `CCCSc1nc2c(s1)C(=O)N1CCCCC1C(=O)N2` (stereo not drawn), for which the Activity is 40%.
